Measurements reported in patent US6706745B1, “Biphenylamidine derivatives” (Teijin Limited, priority 1997, dated 2004).
pIC50: −log10 of the molar value. Where a name gives a salt, the structure may show the parent alone.

Tests used:
human thrombin = target: T1, human thrombin (Homo sapiens, UniProt P00734); assay: Determination of thrombin inhibiting activity, chromogenic substrate S-2238; assay type: biochemical; conditions: substrate S-2238, 30 min incubation, A405, read-out: Thrombin inhibition activity IC50
T1 construct: 1 U/mL human thrombin
Procedure: (2) Determination of Thrombin Inhibiting Activity:
To 70 μL of the specimen serially diluted with water, 90 μL of 100 mM Tris buffer (pH 8.4), 20 μL of 50 mM Tris buffer (pH 8.4) containing 1 U/mL human thrombin, and 2 mM substrate (Daiichi Chemical S-2238) were added and incubated for 30 min., 50μL of 50% acetic acid was added, and the absorbance (A405) were determined. As, a blank, Tris buffer was added instead of thrombin while as a control, water is added instead of the specimen. The 50% inhibition activity (IC50) was determined as the indication of thrombin inhibiting activity.

normal human plasma = assay: Determination of anticoagulation activity (APTT); assay type: biochemical; conditions: concentration corresponding to 2-fold elongation of coagulation time
Procedure: (3) Determination of Anticoagulation Activity (APTT):
To 100 μL of normal human plasma (Ci-Trol®) manufactured by DADE, 100 μL of the specimen was added, and incubated at 37° C. for 1 minute. To this solution, 100 μL of APTT reagent (manufactured by DADE) which was, retained at 37° C. was added, and after incubating at 37° C. for 2 minutes, 100 μL of 25 mM calcium chloride solution was added, and the coagulation time was determined using the coagulation measurement apparatus manufactured by AMELUNG. The coagulation time when physiological salt solution was added instead of the analyte is used as a control, the concentration of the specimen corresponding to the 2-fold elongation of this coagulation time (CT2) is calculated, and this value is used as,the indication of the anticoagulation activity.

[1] = Determination of bioavailability (BA) in mouse; assay type: in vivo; conditions: fasted male ICR mice; oral 10 mg/kg vs intravenous 3 mg/kg; from plasma AUC
Procedure: (5) Determination of Bioavailability (BA):
The substance for analysis was dissolved in distilled water (for oral administration; 10 mg/kg) or physiological salt solution (for intravenous administration; 3 mg/kg) to prepare a solution for administration. This solution was administered to fasted ICR mice (male, 6 weeks aged), the whole blood was extracted from the heart under ether anesthesia at 5 min. (intravenous administration group only), 15 min., 30 min., 1 hr., 2 hr. and 4 hr. after the administration, and the plasma was separated by the centrifugation (3,500 rpm, 30 min., 4° C.) to produce the specimen (n=4). Using the above method for determining FXa inhibiting activity, the calibration curve for the substance for analysis was previously prepared and the concentration of the substance for analysis in the specimen was determined. The lower area of the concentration in plasma—time curve (AUC) was calculated and then the bioavailavility in the mouse (BA) was calculated according to the following formula: [formula]

[2] = target: T2, human acetylcholine esterase (Homo sapiens, UniProt P22303); assay: Determination of acetylcholine esterase (AChE) inhibiting activity; assay type: biochemical; conditions: read-out: AChE inhibition activity IC50
T2 construct: purchased Sigma C-5400
T2 sequence (P22303 32-617 isoform P22303-2 limits assumed): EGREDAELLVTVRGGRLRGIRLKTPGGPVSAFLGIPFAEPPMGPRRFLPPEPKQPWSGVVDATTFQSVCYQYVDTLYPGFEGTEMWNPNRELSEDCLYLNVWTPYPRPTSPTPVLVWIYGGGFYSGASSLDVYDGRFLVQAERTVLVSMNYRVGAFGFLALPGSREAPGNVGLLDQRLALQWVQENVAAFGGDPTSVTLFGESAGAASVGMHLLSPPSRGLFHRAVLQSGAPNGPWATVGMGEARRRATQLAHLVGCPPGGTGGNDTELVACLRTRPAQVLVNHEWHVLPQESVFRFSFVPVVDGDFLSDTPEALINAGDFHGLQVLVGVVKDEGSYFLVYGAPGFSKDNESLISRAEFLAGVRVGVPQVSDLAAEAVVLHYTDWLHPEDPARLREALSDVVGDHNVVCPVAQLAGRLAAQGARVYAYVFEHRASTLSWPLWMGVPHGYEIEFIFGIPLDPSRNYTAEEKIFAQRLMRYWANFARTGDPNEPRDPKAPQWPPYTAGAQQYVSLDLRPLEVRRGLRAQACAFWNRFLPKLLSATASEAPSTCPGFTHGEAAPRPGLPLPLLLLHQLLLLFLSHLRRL
Procedure: (4) Determination of Acetylcholine Esterase (AChE) Inhibiting Activity
The substance for analysis was dissolved in distilled water as specimen. To 50 μL of the specimen serially diluted, 50 μL of enzyme solution, wherein human acetylcholine esterase (manufactured by Sigma, C-5400) had been dissolved in distilled water at 0.1 U/mL was added. To this solution, 50 μL of the solution which was prepared by dissolving 5,5′-dithiobis (manufactured by Nacarai Tesque, 141-01) in phosphate buffer (0.1M NaH2PO4—Na2HPO4, pH 7.0) at 0.5 mM is,added and mixed, and reacted with 50 μL of the solution wherein acetylthiocholine iodide (Wako Company, 017-09313) had been dissolved in phosphate buffer at 3 mM, at room temperature. As a control distilled water was added instead of the substance for analysis and the absorbance (A450) was determined over time. As a blank, phosphate buffer was added instead of the enzyme solution and the 50% inhibition activity (IC50),was determined.

human FXa = human FXa (Homo sapiens, UniProt P00742); assay: Determination of inhibiting activity of activated blood coagulation factor X (FXa), chromogenic substrate S-2765; assay type: biochemical; conditions: substrate S-2765, 30 min incubation, A405, read-out: Fxa inhibition activity IC50
human FXa, sequence (P00742 235-488 limits assumed): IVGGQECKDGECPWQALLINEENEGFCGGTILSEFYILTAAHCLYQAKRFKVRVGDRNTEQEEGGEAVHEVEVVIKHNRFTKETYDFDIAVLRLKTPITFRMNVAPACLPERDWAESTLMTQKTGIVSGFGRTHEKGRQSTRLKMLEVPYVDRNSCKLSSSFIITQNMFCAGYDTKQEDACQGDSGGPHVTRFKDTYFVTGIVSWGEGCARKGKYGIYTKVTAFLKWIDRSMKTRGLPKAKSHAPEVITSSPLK
human FXa, sequence (P00742 41-179 partner limits assumed): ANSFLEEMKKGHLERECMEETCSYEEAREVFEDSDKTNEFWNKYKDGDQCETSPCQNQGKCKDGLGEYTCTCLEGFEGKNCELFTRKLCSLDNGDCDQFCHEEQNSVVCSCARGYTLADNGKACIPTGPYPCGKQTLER
Procedure: (1) Determination of Inhibiting Activity of Activated Blood Coagulation Factor X (FXa):
The substance for analysis was dissolved in water or water wherein a suitable concentration of organic solvents (DMSO ethanol or .methanol) had been added, as a specimen. To 70 μL of the specimen serially diluted with water, 90 μL of 100 mM Tris buffer (pH 8.4), 20 μL of 50 mM Tris buffer (pH 8.4) containing 50 mU/mL human FXa, and 2 mM substrate (Daiichi Chemical S-2765) were added and incubated for 30 min., 50 μL of 50% acetic acid was added, and the absorbance (A405) were determined. As a blank, Tris buffer was added instead of FXa while, as a control, water was added instead of the specimen. The 50% inhibition activity (IC50) was determined as the indication of FXa inhibiting activity.

Structure (SMILES) | pIC50 (human thrombin) | APTT CT2 (normal human plasma) | Mouse BA [1] | pIC50 [2] | pIC50 (human FXa)
N=C(N)c1cccc(-c2cc(CNCC3CCN(CCO)CC3)cc(C(=O)O)c2)c1 [Example 72] | < 3.00 | 11 µM | 13% | < 3.60 | 5.92
CC(=N)N1CCC(CNCc2cc(C(=O)O)cc(-c3cccc(C(=N)N)c3)c2)CC1 [Example 70] | < 3.00 | 2.0 µM | 11% | 3.85 | 6.72
CC(=N)N1CCC(COCc2cc(C(=O)O)cc(-c3cccc(C(=N)N)c3)c2)CC1 [Example 61, 3-(3-Amidinophenyl)-5-[(1-acetoimidoyl-4-piperidinyl)methoxymethyl]benzoic Acid.hydrochloride] | < 3.00 | 0.76 µM | 10% | 4.31 | 7.20
CC(=N)N1CCC(COCc2cc(CCC(=O)O)cc(-c3cccc(C(=N)N)c3)c2)CC1 [Example 82] | < 3.00 | 1.9 µM | 11% | 3.77 | 6.89
CC(=N)N1CCC(CN(CCO)Cc2cc(C(=O)O)cc(-c3cccc(C(=N)N)c3)c2)CC1 [Example 81] | 3.09 | 2.8 µM | 7% | 3.89 | 6.68
CC(=N)N1CCC(CN(C)Cc2cc(C(=O)O)cc(-c3cccc(C(=N)N)c3)c2)CC1 [Example 74] | < 3.00 | 5.4 µM | 13% | 3.82 | 6.23
N=C(N)c1cccc(-c2cc(CNCC3CCCCC3)cc(C(=O)O)c2)c1 [Example 73] | < 3.00 | 13 µM | – | < 3.60 | 5.77
